Patent US12435144B2, “Use of combination of anti-PD-1 antibody and VEGFR inhibitor in preparation of drug for treating cancers” (Suzhou Suncadia Biopharmaceuticals Co., Ltd., priority 2016, dated 2025)

Key:
[1] = test system: metastatic gastric/gastroesophageal junction cancer; details: cited from earlier work
VEGFR-2 = VEGFR-2 (Homo sapiens, UniProt P35968); details: little or no inhibition on other kinases; cited from earlier work
[2] = test system: mouse colon cancer cell MC-38 (PD-L1) xenograft; assay: MC38 (PD-L1) xenograft in human PD-1 transgenic C57 mice; format: in vivo; details: anti-PD-1 antibody 3 mg/kg ip Q2D*7, apatinib 200 mg/kg po QD*14
Protocol: • 1. Study purposes: Human PD-1 transgenic mice were used as test animals. The effects of anti-PD-1 antibody in combination with apartinib on human PD-1 expressed in transgenic C57 mice were evaluated, and the transgenic mice bear mouse colon cancer cell MC-38 (PD-L1) xenograft transfected with PD-L1 gene. • 2. Test antibodies and compounds: The anti-PD-1 antibody was prepared according to the method disclosed in WO2015085847 in which the corresponding code of the antibody is H005-1, and the sequences of the heavy and light chain are shown in SEQ ID NO: 7 and SEQ ID NO: 8 in the present invention. Lot number: P1512, 200 mg/vial, formulated into 20 mg/ml before use. Apatinib mesylate was prepared according to the method disclosed in CN101676267A, lot number: 668160401; molecular weight: 493.58; purity: 99.60%. • 3. Experimental animals: Human PD-1 transgenic C57 mice, specific-pathogen-free (SPF), with different body weights, 50% male and 50% female, were purchased from IsisInnovation Limited, UK. • 4. Drug preparation: Anti-PD-1 antibody (3 mg/kg): anti-PD-1 antibody stock solution (20 mg/ml) was adjusted to a concentration of 0.3 mg/ml with phosphate buffered saline (PBS), and the intraperitoneal injection volume was 0.2 ml/mouse. Apatinib (200 mg/kg): 400 mg apatinib was dissolved in 20 ml of 0.5% sodium carboxymethylcellulose (NaCMC), adjusted to 20 mg/ml, and was administered in 0.2 ml per mouse by gavage. […] The specific drug administration regimen is shown in Table 1. • 5.4 Determination of volume of xenograft and body weight of mice: Tumor volume and body weight were measured twice a week and data were recorded. • 5.5 Statistics: Excel 2003 statistical software was used: the mean was calculated by avg; the SD value was calculated by STDEV; the SEM value was calculated by STDEV/SQRT; the P value indicating the difference between groups is calculated by TTEST. […]

[3] = apatinib alone compared with placebo

Sequence of VEGFR-2 (P35968 20-1356, species assumed): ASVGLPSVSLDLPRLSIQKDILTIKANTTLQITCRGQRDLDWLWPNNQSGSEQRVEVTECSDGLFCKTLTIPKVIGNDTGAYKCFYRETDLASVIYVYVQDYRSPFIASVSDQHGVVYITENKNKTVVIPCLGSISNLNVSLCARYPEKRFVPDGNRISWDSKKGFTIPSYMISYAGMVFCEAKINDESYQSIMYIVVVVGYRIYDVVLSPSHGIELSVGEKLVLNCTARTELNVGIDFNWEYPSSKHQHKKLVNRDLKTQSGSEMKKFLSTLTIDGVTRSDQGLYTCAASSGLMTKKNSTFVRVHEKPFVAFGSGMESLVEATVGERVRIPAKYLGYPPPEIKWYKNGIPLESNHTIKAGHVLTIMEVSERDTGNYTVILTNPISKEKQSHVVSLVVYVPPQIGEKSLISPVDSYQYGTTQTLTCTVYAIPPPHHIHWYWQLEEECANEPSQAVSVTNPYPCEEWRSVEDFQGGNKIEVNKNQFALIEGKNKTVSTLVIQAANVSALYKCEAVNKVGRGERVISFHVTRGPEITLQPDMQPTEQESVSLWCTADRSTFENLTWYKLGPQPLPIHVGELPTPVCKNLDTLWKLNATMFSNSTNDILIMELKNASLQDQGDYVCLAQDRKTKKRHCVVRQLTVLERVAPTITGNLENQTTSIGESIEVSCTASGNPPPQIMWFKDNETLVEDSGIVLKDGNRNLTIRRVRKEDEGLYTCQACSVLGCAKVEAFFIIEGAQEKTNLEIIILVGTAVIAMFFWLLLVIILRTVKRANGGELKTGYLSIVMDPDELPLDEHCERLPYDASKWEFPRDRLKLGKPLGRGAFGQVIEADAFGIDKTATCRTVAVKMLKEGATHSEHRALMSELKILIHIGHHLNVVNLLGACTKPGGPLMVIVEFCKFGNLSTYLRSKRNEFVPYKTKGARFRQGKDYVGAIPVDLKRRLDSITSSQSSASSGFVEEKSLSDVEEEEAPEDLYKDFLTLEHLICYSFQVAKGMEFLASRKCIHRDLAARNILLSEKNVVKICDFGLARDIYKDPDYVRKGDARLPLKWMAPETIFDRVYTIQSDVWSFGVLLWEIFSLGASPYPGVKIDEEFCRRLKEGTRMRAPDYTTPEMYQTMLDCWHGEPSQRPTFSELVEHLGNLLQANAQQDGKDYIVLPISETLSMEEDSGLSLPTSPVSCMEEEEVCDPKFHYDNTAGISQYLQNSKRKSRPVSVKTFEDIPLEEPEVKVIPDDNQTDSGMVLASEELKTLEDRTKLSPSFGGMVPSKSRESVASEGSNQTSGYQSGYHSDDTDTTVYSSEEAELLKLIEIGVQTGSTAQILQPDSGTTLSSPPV

## N#CC1(c2ccc(NC(=O)c3cccnc3NCc3ccncc3)cc2)CCCC1 [apatinib, reference compound]
[1]; [3]
  prolongation of median overall survival: 1.8 months
  prolongation of median progression-free survival: 0.8 months
[1]; apatinib alone
  adverse events: controllable
VEGFR-2
  selectivity for VEGFR-2 over other kinases: highly selective for VEGFR-2
[2]; RTV=VT/V0, day 21
  Relative tumor volume D21: 9.27
[2]; day 21, vs HIgG control
  % Tumor inhibition rate D21: 25.67%
[2]; day 21 after initial administration, 8 mice/group
  Mean tumor volume (mm^3) D21: 1263.86 mm^3
